Experimental data: US10905750B2, “GRP78 antagonist that block binding of receptor tyrosine kinase orphan receptors as immunotherapy anticancer agents” (CREATIVE BIOTHERAPEUTICS, LLC, priority 2017, dated 2021)
Entries after “also recorded” stand apart in the source; their conditions may differ.

Assays:
[1] = system: mouse breast cancer cells, 4T1; experiment: WST-8 proliferation assay, 4T1 (5 day); format: cell-based; conditions: 120 h, GRP78 10 ug/ml, 5 days, read-out: Proliferation Inhibition (5 day) IC50, Mouse Breast Cancer 4T1
[2] = system: chemo-resistant colon cancer cells (DLD-1); experiment: WST-8 proliferation assay, DLD-1 (5 day); format: cell-based; conditions: Homo sapiens, DLD-1, 120 h; GRP78 10 ug/ml, 5 days; read-out: Proliferation Inhibition (5 day) IC50, Colon Cancer DLD-1
[3] = system: BT549 human breast cancer cells; experiment: WST-8 proliferation assay, BT549 (5 day); format: cell-based; conditions: BT-549, 120 h, GRP78 10 ug/ml, 5 days, read-out: Proliferation Inhibition (5 day) IC50, Breast Cancer BT549
Method: The inhibition effect of GRP78 antagonist on metastatic triple-negative, chemo-resistant BT549 cells was assessed using a proliferation assay.

D54 glioma cells = experiment: Tumor cell proliferation assay 72 hours, D54; format: cell-based
Method: (§1) For the proliferation assay, cells were plated in 96 well plates at approximately 3000 cells per well overnight. The media was removed and fresh media with 1% FBS containing 10 μg/ml GRP78 was added along with the GRP78 antagonists. The plates were incubated for 72 hours at 37 C in 8% CO2. After 72 hours, cell number was determined with a WST-8 cell proliferation kit (Sigma). […] The only tumor cell line tested to not be inhibited by GRP78 antagonists was HT29, a colon carcinoma cell line. From our previous data above, we know U87 and D54 have ROR1 expressed on their cell surfaces.

293 Kidney fibroblasts = experiment: Proliferation assay 72 hours, 293 kidney normal cells; format: cell-based, human
Method: as §1

[4] = system: GRP78 treated dendritic cells; experiment: Tolerogenic phenotype of GRP78 treated dendritic cells (flow cytometry, IL-10 ELISA); format: cell-based, human; conditions: for maturity marker CD86 on DCs exposed to GRP78/LPS: FIG. 13; for activity for reversing the tolerogenic phenotype of dendritic cells induced by GRP78: dose dependent, in words; for potency in blocking B7H3 on DCs exposed to GRP78, relative to K5: flow cytometry, FIG. 9A
Method: Consequently surface GRP78 binding on tumor cells leads to chemo-resistance and proliferation. […] Immature dendritic cells were differentiated from isolated CD14^+ myeloid cells with the addition of GM-CSF and IL-4 for 7 days. GRP78 (10 μg/ml) was added to the cells to produce a tolerogenic phenotype showing up regulation of PD-L1, B7H4, B7H3, IL-10 and down regulation of CD86. Therefore our GRP78 antagonists can potently block the activity of GRP78 on dendritic cells.
FIG. 9A-9C illustrates increasing amounts of the GRP78 antagonists result in blocking GRP78 which reduces checkpoint protein expression on DCs. A tolerogenic dendritic cell phenotype is induced by soluble GRP78 binding. Myeloid CD14+ cells were co-stimulated for 7 days with IL-4, and GMCSF. On day 5 LPS along with or without GRP78 and GRP78 antagonists were added. On day 8, dendritic cells were fixed and stained for flow cytometry. The percent of B7H3, PD-L1, CD86 was measured by flowcytometry and compared to GRP78 untreated dendritic cells.
To determine if GRP78 antagonists can block the tolerogenic phenotype of GRP78 treated dendritic cells, we differentiated immature dendritic cells. From 20 million human pooled PBMCs (AllCells), we isolated about 2.5 million CD14+ monocytes using positive selection with a pluribead CD14 kit (Pluriselect). […] From our multiple studies, we can isolate about 2.5 million CD14+ monocytes from 20 million PBMCs using positive selection with pluribeads (Pluriselect). […] On day 8, cells were fixed and aliquots stained at 4 C for various tolerogenic DC markers: PD-I([…]), B7H4, […], CD86, CD14, ROR1. Stained cells were analyzed byflow cytometry analysis. All antibodies for the DC markers were PE labeled from BD PharMingen. The cytokine, IL-10 (ENZO Life Sciences), was assayed by ELISA (Sigma). Negative controls wells were with GRP78 and positive controls are without GRP78 but with LPS. […] All of these antagonists decreased expression of PD-L1, B7H4, B7H3, and IL-10 from mature dendritic cells and increased expression of the maturity marker CD86 on dendritic cells (FIGS. 9A-9C).

[5] = system: Calu 6 lung carcinoma cells; experiment: Tumor cell proliferation assay 72 hours, Calu 6; format: cell-based
Method: as §1

GRP78 = biological target: T1, GRP78 (Homo sapiens, UniProt P11021); experiment: GRP78 ELISA, direct binding of biotin-labelled kringles; conditions: FIG. 19A
T1 construct: purchased StressMarq
T1 sequence (P11021 19-654, species assumed): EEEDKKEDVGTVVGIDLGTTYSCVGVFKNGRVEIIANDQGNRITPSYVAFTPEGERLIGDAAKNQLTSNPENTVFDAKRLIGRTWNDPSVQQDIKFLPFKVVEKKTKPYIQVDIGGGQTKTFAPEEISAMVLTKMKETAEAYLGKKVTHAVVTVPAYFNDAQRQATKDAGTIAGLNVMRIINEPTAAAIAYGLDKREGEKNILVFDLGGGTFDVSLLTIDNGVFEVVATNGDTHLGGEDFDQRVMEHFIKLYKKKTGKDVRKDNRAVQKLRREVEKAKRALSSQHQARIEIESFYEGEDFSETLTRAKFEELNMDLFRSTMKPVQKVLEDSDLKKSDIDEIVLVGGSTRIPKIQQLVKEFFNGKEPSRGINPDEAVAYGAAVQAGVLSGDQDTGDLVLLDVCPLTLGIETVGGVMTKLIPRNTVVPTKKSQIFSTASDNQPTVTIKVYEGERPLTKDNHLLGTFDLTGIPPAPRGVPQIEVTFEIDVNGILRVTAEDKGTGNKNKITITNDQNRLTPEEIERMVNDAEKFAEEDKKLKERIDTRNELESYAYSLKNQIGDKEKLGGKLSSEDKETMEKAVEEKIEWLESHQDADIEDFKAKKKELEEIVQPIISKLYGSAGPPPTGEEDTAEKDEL
Source text: Recombinant K5-fragment biotin and Kr1 fragment-biotin were used for binding. Neutra-avidin-HRP was used to detect binding after washing with PBS.
To determine if ROR1 is expressed on immature dendritic cells, CD14^+ cells were isolated from human PBMCs and cultured in GM-CSF, and IL-4 for 7 days to produce immature DCs. […] This flow cytometry analysis supports the hypothesis that immature dendritic cells express ROR1 in which the ROR1 kringle domain binds to GRP78.
Comparison of GRP78 binding for the two kringle domains was performed by a GRP78 ELISA. GRP78 (StressMarq) (1 ug/ml@ 100 μl/well) was bound to a tissue culture coated 96 well plate overnight at 4° C. After washing 3× with PBS, the plates were blocked with superblock (Pierce) for 1 hour at room temperature. […] The plate was then washed 3× with PBS again and Neutra-avidin-HRP was added to the wells for 1 hour at room temperature. The wells were washed again with PBS and one step TMB (Pierce) was added to the wells with absorbance recorded after 30 minutes to measure kringle binding. […] To analyze these peptides for binding to GRP78, we used a 96 well competition binding assay. The assay consisted of binding GRP78 to a tissue coated 96 well plate as listed above. […] After the plate was washed, Neutra-avidin-HRP was added and bound K5 was measured by adding HRP substrate, TMB, as listed above.

[6] = system: MDA231 breast carcinoma cells; experiment: Tumor cell proliferation assay 72 hours, MDA231; format: cell-based
Method: as §1

panel of tumor cells = experiment: Tumor cell proliferation assay 72 hours, whole panel; format: cell-based; conditions: in words
Method: as §1

[7] = system: HT29 colon carcinoma cells; experiment: Tumor cell proliferation assay 72 hours, HT29; format: cell-based
Method: as §1

U87 glioma cells = experiment: Tumor cell proliferation assay 72 hours, U87; format: cell-based
Method: as §1

ROR1 binding to GRP78 = biological target: T2, ROR1 binding to GRP78 (Homo sapiens, UniProt P11021); experiment: Immunoprecipitation of ROR1 using GRP78-Biotin from D54 glioma cell lysate; conditions: D54 glioma cell-surface lysate, 100 nM, FIG. 5
T2 construct: purchased StressMarq; host or cells: ROR1 is endogenous, from D54 glioma cell lysate
T2 sequence (P11021 19-654): as the sequence (P11021 19-654, species assumed) above
Source text: The use of GRP78/ROR1 antagonists to break immune tolerance for the treatment of resistant cancers represents a major shift in cancer therapies. Few, if any, current anti-cancer therapies have anti-angiogenic, anti-tumor and immune modulatory activities similar to modified ROR1, ROR2, and K5 kringle domains. To understand what pathways could be responsible for these activities in tumor and dendritic cells, we used GRP78 binding and crosslinking pull down studies against the cell surface proteome of D54 glioma cells and dendritic cells. We have identified that ROR1 and ROR2 as a cell GRP78 surface receptor.
Since the mechanism of action is inconclusive for soluble, surface bound GRP78, we decided to identify the surface receptor for GRP78 on glioma (D54) cells. Using GRP78 (StressMarq) labeled with Biotin (Sigma, Mix-n-Match), pull down experiments were performed. 2×10(6) D54 glioma cells were grown in a T25 cm flask with full DMEM media overnight. The next day the media was removed and the cells were washed with ice cold PBS. To the attached cells ice cold octyl-lysis buffer (Pierce detergent cell lysis kit) was added and the cells were scrapped off and incubated in a tube with gentle agitation at 4 C for 60 minute. The microcentrifuge tube was centrifuged at 12,000×g for 20 minutes. The supernatant was gently removed and placed on ice. […]

[8] = listed as Kr1(1-91 Active Zone)frag SEQ ID NO: 19

## COc1cccc2c1C(=O)c1c(O)c3c(c(O)c1C2=O)C[C@@](O)(C(=O)CO)C[C@@H]3O[C@H]1C[C@H](N)[C@H](O)[C@H](C)O1 [Doxorubicin]
[1]
  IC50: 7 nM
[2]
  IC50: 7 nM
[3]
  IC50: 2440 nM

## Kr1(1-91 Active Zone)frag SEQ ID NO:19: ROR1 kringle domain (amino acids 308-400 ROR1), expressed in 293T cells
D54 glioma cells; D54, 0.1 μg/ml
  % Proliferation Inhibition: 15 ± 3%
D54 glioma cells; D54, 1 μg/ml
  % Proliferation Inhibition: 52 ± 6%
D54 glioma cells; D54, 10 μg/ml
  % Proliferation Inhibition: 85 ± 3%
293 Kidney fibroblasts; 0.1 μg/ml
  % Proliferation Inhibition: 0 ± 5%
293 Kidney fibroblasts; 1 μg/ml
  % Proliferation Inhibition: 0 ± 6%
293 Kidney fibroblasts; 10 μg/ml
  % Proliferation Inhibition: 0 ± 7%
[4]; 100 nM, FIG. 10
  IL-10 expression of tolerogenic dendritic cells: elimination of IL-10 expression
[4]
  maturity marker CD86 on DCs exposed to GRP78/LPS: completely reverses; also recorded: increases in the maturity marker CD86
  activity for reversing the tolerogenic phenotype of dendritic cells induced by GRP78: potent nM activity
  potency in blocking B7H3 on DCs exposed to GRP78, relative to K5: at least 65 times
[4]; [8]
  maturity marker CD86 on DCs exposed to GRP78/LPS: increases in the maturity marker CD86
  activity for reversing the tolerogenic phenotype of dendritic cells induced by GRP78: reverses
  potency in blocking B7H3 on DCs exposed to GRP78, relative to K5: more potent
[4]; increasing concentrations, FIGS. 11, 12
  percentage of B7H4+ marker on GRP78 treated DCs: decreasing percentages
[5]; Calu 6, 0.1 μg/ml
  % Proliferation Inhibition: 14 ± 2%
[5]; Calu 6, 1 μg/ml
  % Proliferation Inhibition: 31 ± 5%
[5]; Calu 6, 10 μg/ml
  % Proliferation Inhibition: 60 ± 5%
GRP78
  binding range to GRP78: pM range
[6]; MDA231, 0.1 μg/ml
  % Proliferation Inhibition: 33 ± 8%
[6]; MDA231, 1 μg/ml
  % Proliferation Inhibition: 63 ± 12%
[6]; MDA231, 10 μg/ml
  % Proliferation Inhibition: 86 ± 10%
Panel of tumor cells
  inhibition of tumor cell proliferation: potent dose response inhibition
  potency of inhibition of tumor cell proliferation relative to K5: several fold more potent
[7]; HT29, 0.1 μg/ml
  % Proliferation Inhibition: 0 ± 8%
[7]; HT29, 1 μg/ml
  % Proliferation Inhibition: 10 ± 9%
[7]; HT29, 10 μg/ml
  % Proliferation Inhibition: 0 ± 5%
U87 glioma cells; U87, 0.1 μg/ml
  % Proliferation Inhibition: 12 ± 7%
U87 glioma cells; U87, 1 μg/ml
  % Proliferation Inhibition: 45 ± 7%
U87 glioma cells; U87, 10 μg/ml
  % Proliferation Inhibition: 82 ± 8%

B1: unfolded K5: unfolded K5(3-89 Active Zone)frag SEQ ID NO:1 kringle, control (protein)
chain: SEEDCMFGNGKGYRGKRATTVTGTPCQDWAAQEPHRHSIFTPETNPRAGLEKNYCRNPDGDVGGPWCYTTNPRKLYDYCDVPQCAAPKS
modifications: unfolded; Synthetic Peptide K5(3-89 Active Zone)
ROR1 binding to GRP78
  blocking of immunoprecipitation of ROR1 using GRP78: not
